Experimental data: patent US10314820B2, “Imidazole-based heterocyclic compounds” (priority 2014, dated 2019)
Converted amounts (≈) assume the structure as drawn.

Legend:
Format in all cases: cell-based
[1] = test system: Human hepatocytes (HepaRG cells); assay: Human cytotoxicity assay in vitro (CellTiter-Glo), hepatocytes; settings: hepatocyte cytotoxicity score; 24 h exposure
[2] = test system: Human keratinocytes (HaCaT cells); assay: Human cytotoxicity assay in vitro (CellTiter-Glo), keratinocytes; settings: keratinocyte cytotoxicity score; 24 h exposure
[3] = test system: vancomycin-resistant Staphylococcus aureus (from MRSA, COL); assay: microbe, parasite or virus in culture; settings: Staphylococcus aureus, MRSA, read-out: MIC for the resistant strain
[4] = test system: linezolid-resistant Staphylococcus aureus (from MRSA, COL); assay: microbe, parasite or virus in culture; settings: Staphylococcus aureus, MRSA, read-out: MIC for the resistant strain

Compound	cytotoxicity cell line H [1]	cytotoxicity cell line K [2]	MIC [3] [µg/mL]	MIC [4] [µg/mL]
Cc1ccc(-c2nc(-c3nc(-c4ccccc4)c(C)[nH]3)cs2)cc1 [Compound 56]	1 (compounds not causing a loss of viability at concentrations between 25 and 50 μM)	3 (compounds causing more than 50% inhibition of cell viability at 10 μM)		
Cc1[nH]c(-c2csc(-c3ccc(F)cc3)n2)nc1-c1ccccc1 [Compound 11]	1 (compounds not causing a loss of viability at concentrations between 25 and 50 μM)	2 (compounds causing>50% inhibition of cell viability at 25 μM)		
Cc1[nH]c(-c2ccc(-c3ccc(Cl)cc3)s2)nc1-c1ccccc1 [Compound 6]	0 (compounds without signs of cell viability loss at concentrations of 50 μM or higher)	0 (compounds not causing loss of cell viability at concentrations of 50 μM or higher)		
Cc1nc(-c2ccc(-c3ccccc3OC(F)(F)F)o2)[nH]c1-c1cccc(Cl)c1 [Compound 21]	3	2 (compounds causing>50% inhibition of cell viability at 25 μM)		
CN[C@H](CC(C)C)C(=O)N[C@H]1C(=O)N[C@@H](CC(N)=O)C(=O)N[C@H]2C(=O)N[C@H]3C(=O)N[C@H](C(=O)N[C@H](C(=O)O)c4cc(O)cc(O)c4-c4cc3ccc4O)[C@H](O)c3ccc(c(Cl)c3)Oc3cc2cc(c3O[C@@H]2O[C@H](CO)[C@@H](O)[C@H](O)[C@H]2O[C@H]2C[C@](C)(N)[C@H](O)[C@H](C)O2)Oc2ccc(cc2Cl)[C@H]1O [vancomycin, Vancomycin, reference compound]			20 (≈ 13.8 µM)	
Cc1nc(-c2ccc(-c3ccc(Cl)cc3Cl)o2)[nH]c1-c1ccc(F)cc1 [Compound 16]	3	1 (compounds causing less than 50% inhibition of cell viability at 50 μM)		
Cc1[nH]c(-c2coc(-c3ccccc3C(F)(F)F)c2)nc1-c1ccccc1 [Compound 72]	3	2 (compounds causing>50% inhibition of cell viability at 25 μM)		
Cc1[nH]c(-c2ccc(-c3ccccc3OC(F)(F)F)o2)nc1-c1ccc(C(F)(F)F)cc1 [Compound 26]	1 (compounds not causing a loss of viability at concentrations between 25 and 50 μM)	0 (compounds not causing loss of cell viability at concentrations of 50 μM or higher)		
Cc1[nH]c(-c2ccc(-c3cccc(Cl)c3)s2)nc1-c1ccccc1 [Compound 12]	1 (compounds not causing a loss of viability at concentrations between 25 and 50 μM)	2 (compounds causing>50% inhibition of cell viability at 25 μM)		
C#Cc1ccc(-c2nc(-c3ccc(-c4ccccc4C(F)(F)F)o3)[nH]c2C)cc1 [Compound 27]	1 (compounds not causing a loss of viability at concentrations between 25 and 50 μM)	2 (compounds causing>50% inhibition of cell viability at 25 μM)		
Cc1[nH]c(-c2ccc(-c3ccccc3)s2)nc1-c1ccccc1 [Compound 74]	1 (compounds not causing a loss of viability at concentrations between 25 and 50 μM)	3 (compounds causing more than 50% inhibition of cell viability at 10 μM)		
Cc1[nH]c(-c2cc(C)n(-c3ccc(F)cc3F)c2C)nc1-c1ccccc1 [Compound 9]	3	2 (compounds causing>50% inhibition of cell viability at 25 μM)		
Cc1[nH]c(-c2ccc(-c3ccc(C(F)(F)F)cc3)s2)nc1-c1ccccc1 [Compound 46]	1 (compounds not causing a loss of viability at concentrations between 25 and 50 μM)	1 (compounds causing less than 50% inhibition of cell viability at 50 μM)		
Cc1[nH]c(-c2ccc(-c3ccccc3C(F)(F)F)o2)nc1-c1ccc(Br)cc1 [Compound 25]	0 (compounds without signs of cell viability loss at concentrations of 50 μM or higher)	0 (compounds not causing loss of cell viability at concentrations of 50 μM or higher)		
Cc1[nH]c(-c2cc(C)n(-c3ccc4c(c3)CCC4)c2C)nc1-c1ccccc1 [Compound 59]	2	2 (compounds causing>50% inhibition of cell viability at 25 μM)		
FC(F)(F)Oc1ccccc1-c1ccc(-c2nc(-c3ccccc3Cl)c[nH]2)o1 [Compound 67]	2	2 (compounds causing>50% inhibition of cell viability at 25 μM)		
Cc1[nH]c(-c2ccc(-c3ccc(F)cc3)s2)nc1-c1ccccc1 [Compound 7]	1 (compounds not causing a loss of viability at concentrations between 25 and 50 μM)	2 (compounds causing>50% inhibition of cell viability at 25 μM)		
Cc1[nH]c(-c2cc(C)n(-c3ccc(C(C)C)cc3)c2C)nc1-c1ccccc1 [Compound 58]	3	2 (compounds causing>50% inhibition of cell viability at 25 μM)		
FC(F)(F)c1ccccc1-c1ccc(-c2nc(Cl)c(-c3ccccc3)[nH]2)o1 [Compound 65]	2			
CCc1ccc(-c2[nH]c(-c3ccc(-c4ccccc4C(F)(F)F)o3)nc2C)cc1 [Compound 28]	1 (compounds not causing a loss of viability at concentrations between 25 and 50 μM)	0 (compounds not causing loss of cell viability at concentrations of 50 μM or higher)		

Compound	cytotoxicity cell line H [1]	cytotoxicity cell line K [2]	MIC [3] [µg/mL]	MIC [4] [µg/mL]
Cc1nc(-c2ccc(-c3ccc(Cl)c(OC(F)(F)F)c3)o2)[nH]c1-c1ccc(F)cc1 [Compound 43]	3			
Cc1[nH]c(-c2ccc(-c3ccccc3C(F)(F)F)o2)nc1-c1cccc(Cl)c1 [Compound 22]		2 (compounds causing>50% inhibition of cell viability at 25 μM)		
FC(F)(F)Oc1ccccc1-c1ccc(-c2nc(-c3ccc(Cl)cc3Cl)c[nH]2)o1 [Compound 68]	2	2 (compounds causing>50% inhibition of cell viability at 25 μM)		
Cc1[nH]c(-c2cc(C)n(-c3ccc(Cl)cc3)c2C)nc1-c1ccccc1 [Compound 8]	2	1 (compounds causing less than 50% inhibition of cell viability at 50 μM)		
Cc1ccc(-c2ncc(-c3nc(-c4ccccc4)c(C)[nH]3)s2)cc1 [Compound 55]	1 (compounds not causing a loss of viability at concentrations between 25 and 50 μM)			
Cc1ccc(-c2nc(-c3nc(-c4ccccc4)c(C)[nH]3)co2)cc1 [Compound 57]	1 (compounds not causing a loss of viability at concentrations between 25 and 50 μM)	3 (compounds causing more than 50% inhibition of cell viability at 10 μM)		
Cc1[nH]c(-c2ccc(-c3ccccc3OC(F)(F)F)o2)nc1Cc1ccc(Br)cc1 [Compound 30, 4-(4-Bromo-benzyl)-5-methyl-2-[5-(2-trifluoromethoxy-phenyl)-furan-2-yl]-1H-imidazole]	3	3 (compounds causing more than 50% inhibition of cell viability at 10 μM)		
Cc1[nH]c(-c2ccc(-c3ccc(OC(F)(F)F)cc3Cl)o2)nc1-c1ccc(F)cc1 [Compound 51]	3	3 (compounds causing more than 50% inhibition of cell viability at 10 μM)		
Cc1[nH]c(-c2cc(C)n(-c3cccc(C(F)(F)F)c3)c2C)nc1-c1ccccc1 [Compound 36]	3	2 (compounds causing>50% inhibition of cell viability at 25 μM)		
Cc1[nH]c(-c2ccc(-c3ccc(OC(F)(F)F)cc3)o2)nc1-c1ccc(Cl)cc1 [Compound 48]	2	1 (compounds causing less than 50% inhibition of cell viability at 50 μM)		
Cc1[nH]c(-c2ccn(-c3ccccc3C(F)(F)F)c2)nc1-c1ccccc1 [Compound 33]		3 (compounds causing more than 50% inhibition of cell viability at 10 μM)		
Cc1[nH]c(-c2ccc(-c3cccc(C(F)(F)F)c3)o2)nc1-c1ccc(F)cc1 [Compound 38]	1 (compounds not causing a loss of viability at concentrations between 25 and 50 μM)	2 (compounds causing>50% inhibition of cell viability at 25 μM)		
Cc1[nH]c(-c2csc(-c3cccc(Br)c3)n2)nc1-c1ccccc1 [Compound 14]	1 (compounds not causing a loss of viability at concentrations between 25 and 50 μM)	1 (compounds causing less than 50% inhibition of cell viability at 50 μM)		
Cc1nc(-c2ccc(-c3cccc(OC(F)(F)F)c3)o2)[nH]c1-c1ccc(F)cc1 [Compound 37]	3	2 (compounds causing>50% inhibition of cell viability at 25 μM)		
CC(=O)NC[C@H]1CN(c2ccc(N3CCOCC3)c(F)c2)C(=O)O1 [linezolid, reference compound]				7.5 (≈ 22.2 µM)
FC(F)(F)Oc1ccccc1-c1ccc(-c2ncc(-c3ccccc3)[nH]2)o1 [Compound 63]	2			
Cc1nc(-c2ccc(-c3ccccc3C(F)(F)F)o2)[nH]c1-c1ccccc1Cl [Compound 20]	3	0 (compounds not causing loss of cell viability at concentrations of 50 μM or higher)		
Cc1[nH]c(-c2ccc(-c3cccc(Br)c3)s2)nc1-c1ccccc1 [Compound 13]	1 (compounds not causing a loss of viability at concentrations between 25 and 50 μM)	1 (compounds causing less than 50% inhibition of cell viability at 50 μM)		
Cc1[nH]c(-c2cc(C)n(-c3ccc(F)c(F)c3F)c2C)nc1-c1ccccc1 [Compound 10]	3	2 (compounds causing>50% inhibition of cell viability at 25 μM)		
Cc1ccc(-c2ccc(-c3nc(-c4ccccc4)c(C)[nH]3)s2)cc1 [Compound 54]	1 (compounds not causing a loss of viability at concentrations between 25 and 50 μM)	1 (compounds causing less than 50% inhibition of cell viability at 50 μM)		
